Reference: the supplement of paper PMC11208160

Assay: recombinant UMI read abundance after kanamycin selection (control-corrected) (log10(CPM+1)); higher = more efficient recombination; extreme values may be limits of the assay; sequences stand for … in AGTGCAGAGAAAATCGGCCAGTTTTCTCTGCCTGCAGTCCGCATGCCGTGGGACCCCTTGGGTTCTAACCTGTTGCCTAGATTTATGCAGCGGACTGCCTTTCTCCCAAAGTGATAAACCGG…AGGTTGGTTTCACT; site = the 11-nt donor
Summary of the method: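 Under IPTG (0.07 mM) plus kanamycin, or without selection, Escherichia coli carrying a UMI-tagged donor and donor-binding-loop pair library and a target plasmid for the IS621 bridge recombinase were plated in two replicates. Recombinant UMIs were PCR-amplified across the donor–target junction and sequenced. Counts were converted to CPM, averaged over replicates, scaled by control-derived factors and reported as log10(CPM+1).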
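Further: IS621 bridge recombinase in Escherichia coli cells against a fixed T5 target plasmid.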

Sequence	recombinant UMI read abundance (log10)
AGGTTCCCATGGACCGGTTTTCCCGGTAATCCGTATTTGTA (site AGGTTCCCTAA)	0.0166
AGGTTCCCATGGACCGGTTTTCCCGGTAATCCGTATTTGTA (site AGGTTCCCTCA)	0.0195
AGGTTCCCATGGACCGGTTTTCCCGGTAATCCGTATTTGTA (site AGGTTCCCTGA)	0
AGGTTCCCATGGACCGGTTTTCCCGGTAATCCGTATTTGTA (site AGGTTCCCTTA)	1.5
AGGTTGCCATGGACCGGTTTTCCCGGTAATCCGTATTTGTG (site AGGTTACCTCA)	0.00238
AGGTTGCCATGGACCGGTTTTCCCGGTAATCCGTATTTGTG (site AGGTTCCCTCA)	0.00991
AGGTTGCCATGGACCGGTTTTCCCGGTAATCCGTATTTGTG (site AGGTTGCCTCA)	0.00688
AGGTTGCCATGGACCGGTTTTCCCGGTAATCCGTATTTGTG (site AGGTTTCCTCA)	0.00563
AGTAATGCATGGACCGGTTTTCCCGGTAATCCGTATTTGAG (site AGTAATGCTCT)	2.15
AGTACACCATGGACCGGTTTTCCCGGTAATCCGTATTTGAC (site AGTACACCTGT)	0
AGTACACCATGGACCGGTTTTCCCGGTAATCCGTATTTGAC (site CGTACACCTGT)	0.0138
AGTACACCATGGACCGGTTTTCCCGGTAATCCGTATTTGAC (site GGTACACCTGT)	0
AGTACACCATGGACCGGTTTTCCCGGTAATCCGTATTTGAC (site TGTACACCTGT)	0
AGTAGATCATGGACCGGTTTTCCCGGTAATCCGTATTTGGA (site AGTAGATCTTC)	1.45
AGTAGGTCATGGACCGGTTTTCCCGGTAATCCGTATTTGAA (site AGTAGGTCTTT)	1.07
AGTCACTCATGGACCGGTTTTCCCGGTAATCCGTATTTGCA (site AGTCACTCTTG)	2.8
AGTCAGCCATGGACCGGTTTTCCCGGTAATCCGTATTTGGA (site AGTCAGCCTTC)	0.0114
AGTCCACCATGGACCGGTTTTCCCGGTAATCCGTATTTGGG (site AGTCCACCTCC)	0.00962
AGTCGGTCATGGACCGGTTTTCCCGGTAATCCGTATTTGGC (site AGTCGGTCTGC)	0
AGTCTGACATGGACCGGTTTTCCCGGTAATCCGTATTTGCT (site AGTCTGACTAG)	1.87
AGTGCCACATGGACCGGTTTTCCCGGTAATCCGTATTTGAG (site AGTGCCACTCT)	0.4
AGTGCCCCATGGACCGGTTTTCCCGGTAATCCGTATTTGCT (site AGTGCCCCTAG)	0.594
AGTGCTCCATGGACCGGTTTTCCCGGTAATCCGTATTTGAA (site AGTGCTCCTTT)	0.416

Sequence	recombinant UMI read abundance (log10)
AGTTACACATGGACCGGTTTTCCCGGTAATCCGTATTTGCC (site AGTTACACTGG)	2.42
AGTTATGCATGGACCGGTTTTCCCGGTAATCCGTATTTGGA (site AATTATGCTTC)	0.159
AGTTATGCATGGACCGGTTTTCCCGGTAATCCGTATTTGGA (site ACTTATGCTTC)	0.849
AGTTATGCATGGACCGGTTTTCCCGGTAATCCGTATTTGGA (site AGTTATGCTTC)	0.923
AGTTATGCATGGACCGGTTTTCCCGGTAATCCGTATTTGGA (site ATTTATGCTTC)	0.709
AGTTGTACATGGACCGGTTTTCCCGGTAATCCGTATTTGGT (site AGTTGTACTAC)	0.56
AGTTGTCCATGGACCGGTTTTCCCGGTAATCCGTATTTGGG (site AGTTGTCCTCC)	0.0152
AGTTGTGCATGGACCGGTTTTCCCGGTAATCCGTATTTGAA (site AGTTGTGCTTT)	0.535
AGTTGTTCATGGACCGGTTTTCCCGGTAATCCGTATTTGGC (site AGTTGTTCTGC)	1.34
AGTTTGGCATGGACCGGTTTTCCCGGTAATCCGTATTTGCT (site AGTTTGGCTAG)	0.0222
AGTTTGGCATGGACCGGTTTTCCCGGTAATCCGTATTTGCT (site CGTTTGGCTAG)	0
AGTTTGGCATGGACCGGTTTTCCCGGTAATCCGTATTTGCT (site GGTTTGGCTAG)	0
AGTTTGGCATGGACCGGTTTTCCCGGTAATCCGTATTTGCT (site TGTTTGGCTAG)	0.0837
ATAAAGGCATGGACCGGTTTTCCCGGTAATCCGTATTTGGG (site ATAAAGGCTCC)	1.03
ATAACTCCATGGACCGGTTTTCCCGGTAATCCGTATTTGCC (site ATAACTCCTGG)	1.64
ATAAGCACATGGACCGGTTTTCCCGGTAATCCGTATTTGAT (site ATAAGCACTAT)	2.23
ATAAGCCCATGGACCGGTTTTCCCGGTAATCCGTATTTGAC (site ATAAGACCTGT)	0
ATAAGCCCATGGACCGGTTTTCCCGGTAATCCGTATTTGAC (site ATAAGCCCTGT)	2.3
ATAAGCCCATGGACCGGTTTTCCCGGTAATCCGTATTTGAC (site ATAAGGCCTGT)	0.528
ATAAGCCCATGGACCGGTTTTCCCGGTAATCCGTATTTGAC (site ATAAGTCCTGT)	0.889
ATAAGGCCATGGACCGGTTTTCCCGGTAATCCGTATTTGTC (site ATAAGGCCTGA)	1.94
ATAAGGCCATGGACCGGTTTTCCCGGTAATCCGTATTTGTC (site ATAAGGCCTGC)	0
ATAAGGCCATGGACCGGTTTTCCCGGTAATCCGTATTTGTC (site ATAAGGCCTGG)	2.46

Sequence	recombinant UMI read abundance (log10)
ATAAGGCCATGGACCGGTTTTCCCGGTAATCCGTATTTGTC (site ATAAGGCCTGT)	0
ATAAGGTCATGGACCGGTTTTCCCGGTAATCCGTATTTGCA (site ATAAGGTCTTG)	2.96
ATACAAGCATGGACCGGTTTTCCCGGTAATCCGTATTTGAG (site ATACAAGCTCT)	2.31
ATACAAGCATGGACCGGTTTTCCCGGTAATCCGTATTTGAG (site ATCCAAGCTCT)	0.803
ATACAAGCATGGACCGGTTTTCCCGGTAATCCGTATTTGAG (site ATGCAAGCTCT)	0.923
ATACAAGCATGGACCGGTTTTCCCGGTAATCCGTATTTGAG (site ATTCAAGCTCT)	0.673
ATACATGCATGGACCGGTTTTCCCGGTAATCCGTATTTGCT (site ATACATGCTAG)	2.75
ATACGGCCATGGACCGGTTTTCCCGGTAATCCGTATTTGAC (site ATAAGGCCTGT)	0
ATACGGCCATGGACCGGTTTTCCCGGTAATCCGTATTTGAC (site ATACGGCCTGT)	0
ATACGGCCATGGACCGGTTTTCCCGGTAATCCGTATTTGAC (site ATAGGGCCTGT)	0
ATACGGCCATGGACCGGTTTTCCCGGTAATCCGTATTTGAC (site ATATGGCCTGT)	0
ATACTAACATGGACCGGTTTTCCCGGTAATCCGTATTTGGA (site ATACTAACTTC)	1.2
ATACTAACATGGACCGGTTTTCCCGGTAATCCGTATTTGGA (site CTACTAACTTC)	0.853
ATACTAACATGGACCGGTTTTCCCGGTAATCCGTATTTGGA (site GTACTAACTTC)	0.275
ATACTAACATGGACCGGTTTTCCCGGTAATCCGTATTTGGA (site TTACTAACTTC)	2.05
ATACTGGCATGGACCGGTTTTCCCGGTAATCCGTATTTGTT (site ATACTGGCTAA)	0.589
ATAGACTCATGGACCGGTTTTCCCGGTAATCCGTATTTGGT (site ATAGACTCTAC)	2.79
ATAGCATCATGGACCGGTTTTCCCGGTAATCCGTATTTGAC (site ATAGCATCTGT)	3.53
ATAGCATCATGGACCGGTTTTCCCGGTAATCCGTATTTGAC (site CTAGTATCTGT)	1.8
ATAGGAGCATGGACCGGTTTTCCCGGTAATCCGTATTTGGC (site ATAGGAGCTGC)	2.91
ATAGTATCATGGACCGGTTTTCCCGGTAATCCGTATTTGCG (site ACAGTATCTTG)	1.46
ATAGTATCATGGACCGGTTTTCCCGGTAATCCGTATTTGCG (site ATAGTATCTCG)	3.07
